According to publication PMC6143625, “A high throughput screen for next-generation leads targeting malaria parasite transmission” (Nature Communications, 2018):

Legend:
[1] = system: HepG2 human cells; design: method as in http://dx.doi.org/10.6019/CHEMBL3507680; conditions: ref http://dx.doi.org/10.6019/CHEMBL3507680; cited from earlier work
[2] = system: P. falciparum 3D7 asexual blood stages; test: Whole-cell time extended asexual growth assay (pLDH); type: cell-based; conditions: Plasmodium falciparum, 72 h; for IC50: dose response retest, read-out: IC50 (µM) Asex stages; for inhibition at 2 µM: primary screen, read-out: %Inh Asex stages @2uM
Description: Asexual activity was assayed via Plasmodium lactate dehydrogenase activity (pLDH), a surrogate of asexual parasite growth. […] 2 µM artesunate and DMSO were used as the positive and negative controls, respectively. […] After plate mixing, NBT reduction was measured by absorbance at 650 nm using Envision (Perkin Elmer).

SMILES: Cc1nn(C)cc1C1=NS(=O)(=O)N(C)C(C(=O)Nc2ccc(Cl)cc2)=C1 [DDD01058696]
- %Inh HepG2 @10uM [1]: 1.32%
- IC50 [2]: 0.456 µM
- inhibition at 2 µM [2]: 97.9%

SMILES: Cc1nn(C)cc1C1=NS(=O)(=O)N(C)C(C(=O)Nc2ccc(Br)cc2)=C1 [DDD01058697]
- %Inh HepG2 @10uM [1]: 0.0552%
- IC50 [2]: 0.366 µM
- inhibition at 2 µM [2]: 98%

SMILES: Cl.Fc1ccc(F)c(CN2CCC(c3cc4ncccc4cn3)CC2)c1 [DDD01058752]
- %Inh HepG2 @10uM [1]: 4.59%
- IC50 [2]: 1.79 µM
- inhibition at 2 µM [2]: 62.6%

SMILES: Cl.Fc1cccc(CN2CCC(c3cc4ncccc4cn3)CC2)c1F [DDD01058754]
- %Inh HepG2 @10uM [1]: 4.71%
- IC50 [2]: 1.64 µM
- inhibition at 2 µM [2]: 33.2%

SMILES: COc1ccc(C)cc1CN1CCC(c2cc3ncccc3cn2)CC1.Cl [DDD01058767]
- %Inh HepG2 @10uM [1]: 105.03%
- IC50 [2]: 0.853 µM
- inhibition at 2 µM [2]: 97.7%

SMILES: Cc1cc(CN2CCc3nc(-c4ccncc4)nc(O)c3CC2)c(C)s1 [DDD01058881]
- %Inh HepG2 @10uM [1]: -7.80%
- IC50 [2]: 2.2 µM
- inhibition at 2 µM [2]: 77.5%

SMILES: CN(C)CCN(C)C(=O)Cn1cccc2cc(-c3ccc(F)cc3)nc1-2 [DDD01059044]
- %Inh HepG2 @10uM [1]: 4.32%
- IC50 [2]: 1.29 µM
- inhibition at 2 µM [2]: 97%

SMILES: CCN1c2ccc(-c3cncn3CC(=O)NC(C)(C)C)cc2CC1C.Cl (stereo not drawn) [DDD01059258]
- %Inh HepG2 @10uM [1]: -7.81%
- IC50 [2]: 2.95 µM
- inhibition at 2 µM [2]: 82.1%

SMILES: c1ccc(-c2cc(CNCCN3CCCC3)c3nnnn3c2)cc1 [DDD01059599]
- %Inh HepG2 @10uM [1]: -3.47%
- IC50 [2]: 1.55 µM
- inhibition at 2 µM [2]: 79.4%

SMILES: COc1ccc(F)c(CN(CCCn2ccnc2)Cc2ccc(C)s2)c1.O=C(O)CC(O)(CC(=O)O)C(=O)O [DDD01059675]
- %Inh HepG2 @10uM [1]: 45.48%
- IC50 [2]: 8.49 µM
- inhibition at 2 µM [2]: 33.8%

SMILES: CN(CCCOc1ccccc1)C(=O)c1csc(-c2nnc[nH]2)n1 [DDD01061692]
- %Inh HepG2 @10uM [1]: -5.84%
- IC50 [2]: 2.03 µM
- inhibition at 2 µM [2]: 34.8%

SMILES: Clc1ccc(C2(CNC3=NCCN3)CC2)cc1.I [DDD01067441]
- %Inh HepG2 @10uM [1]: 10.02%
- IC50 [2]: 1.95 µM
- inhibition at 2 µM [2]: 40.6%

SMILES: COc1cc(C)sc1C(=O)NCCNc1ccccc1 [DDD01067535]
- %Inh HepG2 @10uM [1]: 11.25%
- IC50 [2]: 2.4 µM
- inhibition at 2 µM [2]: 41.9%

SMILES: COc1cc2nc(NCc3ccc(C)nc3)nc(N)c2cc1OC [DDD01069328]
- %Inh HepG2 @10uM [1]: -5.25%
- IC50 [2]: 2.24 µM
- inhibition at 2 µM [2]: 58%

SMILES: Clc1cccc(CNC2CCN(CCc3ccncc3)CC2)c1 [DDD01069722]
- %Inh HepG2 @10uM [1]: 0.53%
- IC50 [2]: 2.28 µM
- inhibition at 2 µM [2]: 57.5%

SMILES: COc1ccccc1CN(C)C(=O)CN1CC(n2nc(C)cc2C)C1 [DDD01071519]
- %Inh HepG2 @10uM [1]: -2.12%
- IC50 [2]: 2.5 µM
- inhibition at 2 µM [2]: 44.4%

SMILES: COc1ccc(C(=O)NCCCOC(C)c2ccccc2)c(OC)c1 (stereo not drawn) [DDD01071935]
- %Inh HepG2 @10uM [1]: -11.10%
- IC50 [2]: 2.68 µM
- inhibition at 2 µM [2]: 41.6%

SMILES: CCC(=O)NCC(c1ccc(SC)cc1)N1CCc2sccc2C1 (stereo not drawn) [DDD01071943]
- %Inh HepG2 @10uM [1]: -8.32%
- IC50 [2]: 2.03 µM
- inhibition at 2 µM [2]: 64.5%

SMILES: CN(C)c1ccnc(N2CCC(NCCOc3ccccc3)CC2)n1 [DDD01072965]
- %Inh HepG2 @10uM [1]: 19.60%
- IC50 [2]: 7.83 µM
- inhibition at 2 µM [2]: 30.8%

SMILES: CCOCC1CCN(C(=O)Nc2ccc3c(c2)CCCN3C)C1 (stereo not drawn) [DDD01073381]
- %Inh HepG2 @10uM [1]: -10.40%
- IC50 [2]: 1.9 µM
- inhibition at 2 µM [2]: 31.9%

SMILES: COc1cccc(CNc2cc(C)nc(-c3ccncc3)n2)c1OC [DDD01073393]
- %Inh HepG2 @10uM [1]: -6.44%
- IC50 [2]: 4.85 µM
- inhibition at 2 µM [2]: 40.5%

SMILES: O=C(c1ccccc1)C1CCN(Cc2cc3c(cc2O)CCC3)CC1 [DDD01073482]
- %Inh HepG2 @10uM [1]: 33.89%
- IC50 [2]: 1.75 µM
- inhibition at 2 µM [2]: 48.9%

SMILES: CC1CCN(c2ccnc3ccc(Br)cc23)CC1 [DDD01075547]
- %Inh HepG2 @10uM [1]: 2.00%
- IC50 [2]: 9.1 µM
- inhibition at 2 µM [2]: 35.9%

SMILES: Cc1cnc(NCc2ccc(S(=O)(=O)N(C)C(C)C)cc2)nc1C [DDD01077176]
- %Inh HepG2 @10uM [1]: -11.10%
- IC50 [2]: 3.18 µM
- inhibition at 2 µM [2]: 42.2%

SMILES: N#Cc1c(Cl)nsc1NCCCN1C(=O)COc2ccccc21 [DDD01077687]
- %Inh HepG2 @10uM [1]: 8.75%
- IC50 [2]: 3.47 µM
- inhibition at 2 µM [2]: 39.1%

SMILES: COc1ccc(Oc2cc(CN)ccn2)cc1 [DDD01078308]
- %Inh HepG2 @10uM [1]: 2.32%
- IC50 [2]: 6.7 µM
- inhibition at 2 µM [2]: 30.1%

SMILES: NC(=O)CN1CCC(Nc2ccnc3ccc(Cl)cc23)CC1 [DDD01078433]
- %Inh HepG2 @10uM [1]: -1.05%
- IC50 [2]: 1.24 µM
- inhibition at 2 µM [2]: 82%

SMILES: Cc1cc(=O)n2nc(Oc3ccc(Cl)c(C)c3)sc2n1 [DDD01078480]
- %Inh HepG2 @10uM [1]: -6.83%
- IC50 [2]: 3.34 µM
- inhibition at 2 µM [2]: 42%

SMILES: COc1c(C)cnc(CN(C)C2CCCCC2)c1C [DDD01078822]
- %Inh HepG2 @10uM [1]: 8.25%
- IC50 [2]: 5.74 µM
- inhibition at 2 µM [2]: 35.1%
